Here are results for six molecules from BindingDB's records for doi:10.1021/jm900517t.

A word on the IC50: it is the concentration that gives 50% inhibition. Read a low IC50 as greater potency in that assay.

What all share (experiment): HCV RNA-Dependent RNA Polymerase Assay (IC50)
The target of experiment [1] is Genome polyprotein (Hepatitis C virus genotype 2b (isolate HC-J8), UniProt P26661).
For experiment [2], the target named is Genome polyprotein (Hepatitis C virus genotype 1b (isolate BK), UniProt P26663). To be noted: pH 7.5; 23 °C.
Chain of Genome polyprotein (Hepatitis C virus genotype 1b (isolate BK), UniProt P26663) (P26663 2420-3010 limits assumed): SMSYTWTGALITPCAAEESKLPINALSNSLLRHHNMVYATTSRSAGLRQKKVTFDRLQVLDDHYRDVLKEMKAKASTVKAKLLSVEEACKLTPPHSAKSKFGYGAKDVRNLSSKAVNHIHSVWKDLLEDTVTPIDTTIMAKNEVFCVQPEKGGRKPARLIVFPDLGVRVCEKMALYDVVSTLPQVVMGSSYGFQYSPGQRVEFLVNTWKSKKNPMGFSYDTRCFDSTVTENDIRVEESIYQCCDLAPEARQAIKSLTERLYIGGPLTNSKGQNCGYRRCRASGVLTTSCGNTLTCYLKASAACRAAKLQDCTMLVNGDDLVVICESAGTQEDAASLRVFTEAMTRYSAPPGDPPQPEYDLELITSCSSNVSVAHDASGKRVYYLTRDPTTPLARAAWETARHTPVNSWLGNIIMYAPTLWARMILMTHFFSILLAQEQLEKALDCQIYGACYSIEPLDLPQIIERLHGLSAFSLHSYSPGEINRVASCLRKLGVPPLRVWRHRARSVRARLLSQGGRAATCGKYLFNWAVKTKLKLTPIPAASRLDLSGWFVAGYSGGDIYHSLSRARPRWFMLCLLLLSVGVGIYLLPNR
The target of experiment [3] is T1, Genome polyprotein [2420-2989,M2842K,R2963Q] (Hepatitis C virus genotype 1b (isolate BK), UniProt P26663, M2842K/R2963Q).
T1 construct: 2420-2989
T1 sequence (P26663 2420-2997, looked up, stated change not applied): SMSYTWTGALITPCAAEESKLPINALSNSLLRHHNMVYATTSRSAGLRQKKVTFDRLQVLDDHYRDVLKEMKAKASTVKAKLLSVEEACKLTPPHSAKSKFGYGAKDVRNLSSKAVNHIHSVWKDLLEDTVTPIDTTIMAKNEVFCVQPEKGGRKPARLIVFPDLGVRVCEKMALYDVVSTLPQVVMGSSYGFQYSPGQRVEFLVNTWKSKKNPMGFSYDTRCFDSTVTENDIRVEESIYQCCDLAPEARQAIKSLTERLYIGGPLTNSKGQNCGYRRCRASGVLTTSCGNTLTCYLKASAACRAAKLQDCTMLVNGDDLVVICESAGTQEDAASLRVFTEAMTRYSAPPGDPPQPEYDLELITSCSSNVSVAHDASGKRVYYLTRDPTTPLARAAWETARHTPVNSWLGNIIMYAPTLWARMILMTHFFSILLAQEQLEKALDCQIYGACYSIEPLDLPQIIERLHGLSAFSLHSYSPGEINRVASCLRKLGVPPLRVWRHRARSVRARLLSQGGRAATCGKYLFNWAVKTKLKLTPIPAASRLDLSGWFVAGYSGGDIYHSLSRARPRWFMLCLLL
To be noted: pH 7.5; 23 °C.

For experiment [4], the target named is T2, Genome polyprotein [2420-2989,R2920E,R2963Q] (Hepatitis C virus genotype 1b (isolate BK), UniProt P26663, R2920E/R2963Q).
T2 construct: 2420-2989
T2 sequence (P26663 2420-2997, looked up, stated change not applied): as above
The settings on record: pH 7.5; 23 °C.

Chain of Genome polyprotein (Hepatitis C virus genotype 2b (isolate HC-J8), UniProt P26661) (P26661 2443-3033 limits assumed): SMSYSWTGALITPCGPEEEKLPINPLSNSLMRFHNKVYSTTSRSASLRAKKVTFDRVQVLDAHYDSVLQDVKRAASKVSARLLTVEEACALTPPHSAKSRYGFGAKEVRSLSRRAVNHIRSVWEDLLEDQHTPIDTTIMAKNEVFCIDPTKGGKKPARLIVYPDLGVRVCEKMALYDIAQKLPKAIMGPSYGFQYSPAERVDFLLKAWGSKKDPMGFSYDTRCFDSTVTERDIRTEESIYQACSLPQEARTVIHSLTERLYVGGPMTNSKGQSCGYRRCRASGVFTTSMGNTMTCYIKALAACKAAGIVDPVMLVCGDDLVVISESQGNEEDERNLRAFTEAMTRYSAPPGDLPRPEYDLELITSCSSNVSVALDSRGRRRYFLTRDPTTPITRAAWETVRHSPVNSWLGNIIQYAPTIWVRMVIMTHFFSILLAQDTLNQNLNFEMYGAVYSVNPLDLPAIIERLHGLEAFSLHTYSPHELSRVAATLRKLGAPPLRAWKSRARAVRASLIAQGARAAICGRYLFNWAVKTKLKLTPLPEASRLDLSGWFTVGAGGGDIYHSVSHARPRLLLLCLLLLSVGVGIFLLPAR

On to `O=C1c2cccc3c(NCCO)ccc(c23)C(=O)N1c1ccccc1` [1H-benzo[de]isoquinoline-1,3(2H)-dione, 4], for which the half-maximal inhibitory concentration (IC50) at Genome polyprotein [1] is above 50 µM. `O=C1c2cccc3cccc(c23)C(=O)N1c1cccc(Br)c1` [1H-benzo[de]isoquinoline-1,3(2H)-dione, 5]: the concentration for half-maximal inhibition (IC50) at Genome polyprotein [2] and against Genome polyprotein [1] was above 50 µM throughout. At Genome polyprotein [1], `O=C1c2cccc3c(NCCO)ccc(c23)C(=O)N1c1cccc(F)c1` [1H-benzo[de]isoquinoline-1,3(2H)-dione, 13] yielded an IC50 above 50 µM. As for `NS(=O)(=O)c1cccc(N2C(=O)c3cccc4c(NCCO)ccc(c34)C2=O)c1` [1H-benzo[de]isoquinoline-1,3(2H)-dione, 14], on Genome polyprotein [1], the half-maximal inhibitory concentration (IC50) was above 50 µM.

Consider `OCCNc1ccc2c3c(cccc13)CN(c1cccc(Br)c1)C2` [benzo[de]isoquinoline, 11], for which the IC50 against Genome polyprotein [2] and at Genome polyprotein [1] was above 50 µM throughout. As for `CC(C)N(c1cc(-c2ccccc2)sc1C(=O)O)C(=O)[C@H]1CC[C@H](C)CC1` [thiophene scaffold, 21], the IC50 is above 10 µM on Genome polyprotein [1], above 0.5 µM in experiment [3] and 0.1 µM in experiment [4].
